Patent US6534515B2, “20,21-dinor-eburnamenines” (Aventis Pharma S.A., priority 1989, dated 2003)

Experiments:
[1] = test system: adrenergic alpha2 receptors; experiment: Affinity for the adrenergic alpha 2 receptors (3H rauwolscine displacement, rat cortex membranes); assay type: binding; conditions: rat brain cortex membranes, 3H rauwolscine 0.15 nM, 45 minutes at 25° C.; CD/CX = concentrations of phentolamine/product inhibiting 50% of specific fixation
Experimental: 1) Affinity for the Adrenergic Alpha 2 Receptors:
10 cortices removed from the brains of male rats weighing an average of 150 g were homogenized in 90 ml of 0.32 M sucrose. After centrifuging 1000 g of the homogenized mixture, for 10 minutes at 0° C.+4° C., the deposit was suspended in 240 ml of 50 mM Tris HCl pH 7.7 buffer, and centrifuged at 30,000 g for 15 minutes at 0°+4° C. The new deposit was suspended in 480 ml of 50 mM NaKPO4 pH 7.4 buffer. Then, 2 ml of suspension were incubated for 45 minutes at 25° C. in the presence of ^3H rauwolscine at a concentration of 0.15 nM:
I) alone or II) with increasing concentrations of the product under test or, III) to determine the non-specific fixation with non-radioactive phentolamine at a concentration of 10^−5M.
The incubated suspensionis were filtered on Whatman GF/C and the filters were washed three times with 5 ml of NaKPO4 pH 7.4 buffer at 0° C. The ratioactivity of the filters was measured by liquid scintillation. The affinity of the product tested for the adrenergic alpha2 receptors was determined relative to phentolamine as reference product.
CD=concentration of phentolamine inhibiting 50% of the specific fixation of ^3H rauwolscine,
CX=concentration of the product under test inhibiting 50% of the specific fixation of ^3H rauwolscine.
The relative affinity was calculated by the relation: […]

[2] = test system: male mice of CD1 CHARLES RIVER type; experiment: Hypobaric anoxia survival time in mice; assay type: in vivo; conditions: intra-peritoneally 10 mg/kg, 60 minutes before the test, pressure drop of 630 mm Hg, relative to control animals
Experimental: Male mice of CD1 CHARLES RIVER type weighing 20 to 25 grams having gone without food for 6 hours were placed in a 2-liter chamber in which a pressure drop of 630 mm Hg was carried out according to the following kinetics:
The survival time was measured from the time TO and over a maximum time of 3 minutes and it was about 70 seconds for the control animals. The rectal temperature was measured immediately before the determination of the survival time. The products were administered intra-peritoneally at a dose of 10 mg/kg and in a volume of 10 ml/kg 60 minutes before the test and the control animals received the vehicle. The results were determined as a percentage of increase in the survival time relative to the control animals.

| Compound | ARL (relative affinity, from CD and CX, relative to phentolamine as reference product) [1] | % increase in survival time [2] [%] |
| --- | --- | --- |
| [16α, (±)-20,21-dinoreburnamenin-15-methanol [Example 13] | 346 | 11 |
| [16α, (±)]-N,N-dimethyl-20,21dinoreburnamenin-15-methanamine [Example 14] | – | 12 |
| [16α, (±)]-15-methyl-20,21-dinoreburnamenine [Example 5] | 456 | 34 |
| Ethyl [16α, (±)]-20,21-dinoreburnamenine-15-acetate [Example 12] | 942 | – |
| [16α, (±)]-14,15-dihydro-15-methylene-20,21-dinorburnamenine [Example 11] | 343 | – |
| [16α, (±)]-15-(1-propynyl)-20,21-dinoreburnamenine [Example 2] | 367 | – |
| CC1=Cn2c3c(c4ccccc42)CCN2CCCC1C32 (stereo not drawn) [Example 7, (3-α)-15-methyl-20,21-dinoreburnameinine] | 980 | – |
